Tests used:
[1] = tested on: three-dimensional human skin model; assay: Cell toxicity at treatment concentrations in three-dimensional human skin model; details: at 3 and 10 μM
[2] = tested on: trypsin-like proteasome activity in three-dimensional human skin model; assay: Proteasome activity in three-dimensional human skin model; assay type: cell-based; details: for proteasome activity compared to the sample not given any treatment: without UV irradiation
Procedure: Three-dimensional human skin models are widely used in safety evaluation and effectiveness evaluation as a simulated model of human skin. In this test, TESTSKIN (LSE-high) (Toyobo Co., Ltd.) was used as a three-dimensional human skin model.
A culture medium was added to the outer well of TESTSKIN (LSE-high) and cultured for 24 hours. UVA and UVB were irradiated at 10 J/cm^2 and 100 mJ/cm^2, respectively. UVB was irradiated for 2 minutes at a UV intensity of […] using FL20S-E-30/DMR (Clinical Supply Co., Ltd.) to achieve a total irradiation dose of 100 mJ/cm^2. UV intensity was measured using a UV MONITOR MS-211-I (Eiko Instruments Co., Ltd.).
Thereafter, the culture solution was changed and each agent was added by 100 μl onto the tissues in the assay ring, after which the medium was cultured for 36 hours. Thereafter, the tissues were collected and a tissue extraction solution (50 mM Tris-HCl (pH 7.5), 0.5% (Octylphenoxy) polyethoxyethanol (Sigma-Aldrich Corp.)) was added, and then the mixture was homogenized using a Teflon (registered trademark) homogenizer. The homogenized mixture was centrifuged for 30 minutes at 10,000×G to remove tissue fragments, and then dialyzed overnight in distilled water at 4° C. Thereafter, the dialyzed mixture was freeze-dried to remove water. A tissue extraction solution was added to obtain a ×20 concentrate, and this concentrate was used as a three-dimensional skin model extract sample.
Proteasome activity was measured using a known method (Hayashi, et al., Mechanisms of Aging and Development, Vol. 102, pp. 55-66, 1998) based on cell extract samples.
The specific method is as follows. For the matrix to measure trypsin-like proteasome activity, t-butyloxycarbonyl-L-leucyl-L-arginyl-L-arginyl-L-4-methyl-coumaryl-7-amide (Peptide Institute, Inc.) was used. A cell extract sample containing protein by an equivalent of 10 μg was added to 10.5 μl of a 100 μM matrix solution prepared with 100 mM Tris-HCl (pH 8.0), after which a cell extraction solution was added to a total volume of 50 μl. The obtained solution was treated for 30 minutes at 37° C., after which the fluorescence intensity of the separated 7-amine-4-methyl coumarin was measured at an excitation wavelength (Ex) of 380 nm and absorption waveform (Em) of 440 nm. The result was obtained for each sample type treated with each agent, as an “average ±standard error” calculated from the measured values of three samples.
Based on the above results, it is clear that Bletilla striata extract and silybin promote proteasome activity in a three-dimensional skin model in a manner dependent on the concentration. Accordingly, whether or not a combined use of Bletilla striata extract and silybin would synergistically promote proteasome activity was evaluated. Also, whether or not a combined use of silybin and soybean saponin, a substance known to have an action to promote proteasome activity, would synergistically promote proteasome activity was evaluated. As a result, regardless of whether or not UV light was irradiated, using silybin (3 μM) in combination with Bletilla striata extract (0.1%; final extract concentration of 0.001%), or using silybin (3 μM) in combination with soybean saponin (0.0005%), promoted proteasome activity synergistically compared to when a sample was treated with silybin (3 μM), Bletilla striata extract (0.1%; final extract concentration of 0.001%) or soybean saponin (0.0005%) alone, as far as promotion of proteasome activity in a three-dimensional skin model was concerned (FIG. 12).

[3] = FIG. 11, 3 μM, under UV irradiation
[4] = FIG. 11, 10 μM, under UV irradiation
[5] = FIG. 12, under UV irradiation, silybin 3 μM, Bletilla striata extract 0.1%, soybean saponin 0.0005%, alone or combined

COc1cc(C2Oc3cc([C@H]4Oc5cc(O)cc(O)c5C(=O)[C@@H]4O)ccc3OC2CO)ccc1O (stereo partly shown) [Silybin, silybin]
cell toxicity [1]: does not occur
proteasome activity compared to the sample not given any treatment under UV irradiation (75%) [2, 3]: 140%
relative proteasome activity level [2, 3]: 105%
proteasome activity compared to the sample not given any treatment ([2]; FIG. 11, 3 μM): 145%
proteasome activity compared to the sample not given any treatment under UV irradiation (75%) [2, 4]: 170%
relative proteasome activity level [2, 4]: 128%
proteasome activity compared to the sample not given any treatment ([2]; FIG. 11, 10 μM): 178%
proteasome activity compared to the sample not given any treatment under UV irradiation (73%) [2, 5]: 121%
relative proteasome activity level [2, 5]: 88%
proteasome activity compared to the sample not given any treatment ([2]; FIG. 12, silybin 3 μM, Bletilla striata extract 0.1%, soybean saponin 0.0005%, alone or combined): 125%

Reference: patent US20110003760A1, “ABNORMAL PROTEIN REMOVING METHOD” (priority 2005, published 2011)
